Like-named read-outs stand apart in the source and are kept apart here.
Key:
[1] = tested on: serum cholesterol and serum triglycerides; assay: Hypolipidaemic activity in rats (compound in diet, last 7 of 10 days); assay type: in vivo, Male Wistar rats; settings: Rattus norvegicus, po, 168 h, 7 days; for change in vivo at 0.2 % strength: 0.2 % w/w dose in diet; for change in vivo at 0.1 % strength: 0.1 % w/w dose in diet; for change in vivo at 0.03 % strength: 0.03 % w/w dose in diet
Method: Hypolipidaemic Activity in Rats
Male Wistar rats each weighing between 120 and 150 g were caged in groups of eight and fed a powdered diet for 10 days. For the last 7 days of that period the test compound was administered orally by mixing the compound in the diet and allowing the animals to feed normally. Food consumption was measured on day 9 for each group.
At noon on day 10 the animals were killed by inhalation of carbon dioxide from solid carbon dioxide. A sample of blood was removed by cardiac puncture and the serum cholesterol and serum triglycerides were analysed by means of an autoanalyser.
Control groups (receiving only the normal, unmedicated diet) were included with each test.
The percentage reductions in the concentrations of serum cholesterol and serum triglycerides were calculated by comparison with the simultaneous controls, for each concentration of the test compound used.

[2] = tested on: Smooth muscle cells from explants of pig thoracic aorta; assay: Aortic smooth muscle cell proliferation inhibiting activity; assay type: cell-based; settings: Sus scrofa, 168 h, 5 μg/ml medium; six or seven day incubation; each value mean of four dishes
Method: Aortic smooth muscle cell proliferation inhibiting activity
Smooth muscle cells were grown in culture from explants of pig thoracic aorta, using Dulbecco's Modified Eagles (DME) Medium containing 20% foetal calf serum (FCS) and antibiotics. The cells were incubated at 37° C. in an atmosphere of 95% air and 5% carbon dioxide. At confluency the cells were routinely subcultured by trypsinising and replating at approximately one third of their confluent density in DME Medium containing 10% FCS and antibiotics.
The smooth muscle cells were plated out at densities of 100,000-200,000 cells per 35×10 mm Falcon dish in 2 ml DME Medium containing 10% FCS and antibiotics. After 24 hours, when the cells had attached to the dishes, the medium was replaced with 2 ml DME Medium containing 1% FCS and antibiotics. The cultures were incubated for a further three days to allow the cells to become quiescent (i.e. no longer undergoing cell division). The medium was then replaced by 2 ml control or test medium. The test medium consisted of DME Medium (containing 10% FCS and antibiotics) and the compound to be tested at a concentration of 5 μg/ml medium. The compounds were pre-dissolved in acetone such that the final concentration of acetone in the medium was 0.2% (v/v). The control medium consisted of DME Medium (containing 10% FCS and antibiotics) and acetone at 0.2% (v/v) concentration. After three days incubation in test or control medium, the medium was replaced with fresh test or control medium and the cells incubated for a further three or four days. At the end of the six or seven day incubation period cell numbers were determined by trypsinising the cells and counting the cell suspension in a Coulter counter.
All results in Table II hereafter represent the mean value for four dishes of cells. Percentage inhibition of proliferation was calculated using the following formula: [formula] where S=Mean cell number per dish at start of experiment (upon addition of control or test medium).
T=Mean cell number per dish in test cultures at completion of experiment.
C=Mean cell number per dish in control cultures at completion of experiment.

serum glucose = assay: Hypoglycaemic activity in diabetic mice; assay type: in vivo, Diabetic mice (strain C 57, black, MRI derived Obese/Obese); settings: 200 mg/kg body weight per day orally for 3 days; 3 hours after last dose
Method: Hypoglycaemic Activity in Diabetic Mice
Diabetic mice (strain C 57, black, MRI derived Obese/Obese) of either sex each weighting between 45 and 70 g were given the test compound orally at a dose of 200 mg/kg body weight per day for 3 days. Three hours after the last dose the animals were weighed, anaesthetised with carbon dioxide and bled by cardiac puncture.
The serum glucose levels were assessed by the glucose-oxidase method of God-Perid.
Control groups (given doses of unmedicated tragacanth mucilage) were included with each test.
The percentage reduction in the concentration of serum glucose was calculated by comparison with the simultaneous controls, for each of the test compounds used.

[3] = read-out: % change in serum cholesterol compared with control
[4] = read-out: % change in serum triglycerides compared with control

| Structure (SMILES) | change in vivo at 0.2 % strength [1, 3] | change in vivo at 0.2 % strength [1, 4] | inhibition at 5 µg/mL [2] | also measured |
| --- | --- | --- | --- | --- |
| CCCCCCCc1cc2ccc(C(=O)OCC)cc2[nH]1 [Compound AJJ, ethyl 2-(n-heptyl)indole-6-carboxylate] | -8% | 6% | 45% |  |
| CCCCCCCc1cc2cc(C(=O)OC)ccc2[nH]1 [Compound ASS, methyl 2-(n-heptyl)indole-5-carboxylate] | -2% | -20% | 36% |  |
| CCCCCCCCCCCCCCCCCCc1cc2cc(C(=O)O)ccc2[nH]1 [Compound T, 2-(n-octadecyl)indole-5-carboxylic acid] | -43% | -67% | 30% | change in vivo at 0.1 % strength [1, 3]: -45%; change in vivo at 0.1 % strength [1, 4]: -78% |
| CCCCCCCCCCCCCCCCc1cc2ccc(C(=O)O)cc2[nH]1 [Compound TT, 2-(n-hexadecyl)indole-6-carboxylic acid] | -8% | -6% | 61% |  |
| CCCCCCCCCCCc1[nH]c2ccc(C(=O)O)cc2c1C [Compound CQQ, 2-(n-undecyl)-3-methylindole-5-carboxylic acid] |  |  |  | % change in serum glucose compared with control (serum glucose): -40% |
| CCCCCCCCCCCCCCc1cc2cc(C(=O)O)ccc2[nH]1 [Compound NN, 2-(n-tetradecyl)indole-5-carboxylic acid] | -39% | -73% | 76% |  |
| CCCCCCCCCCCC1CNc2cc(C(=O)O)ccc21 (racemic) [Compound BXX, (RS)-3-(n-undecyl)indoline-6-carboxylic acid] | -10% | -39% |  | % change in serum glucose compared with control (serum glucose): -9% |
| CCCCCCCCCCCCCCCc1cc2cc(C(=O)O)ccc2[nH]1 [Compound G, 2-(n-pentadecyl)indole-5-carboxylic acid] |  |  | 51% | change in vivo at 0.03 % strength [1, 3]: -7%; change in vivo at 0.03 % strength [1, 4]: -41% |
| CCCCCCCCCCCCCCCCCCCCc1cc2ccc(C(=O)O)cc2[nH]1 [Compound UU, 2-(n-eicosyl)indole-6-carboxylic acid] | -15% | -29% |  |  |
| CCCCCCCCCCCc1cc2cc(C(=O)OCC)ccc2[nH]1 [Compound U, ethyl 2-(n-undecyl)indole-5-carboxylate] | -13% | -39% |  |  |
| CCCCCCCCCCCCCCCCC1CNc2cc(C(=O)OC)ccc21 (racemic) [Compound CFF, (RS)-methyl 3-(n-hexadecyl)indoline-6-carboxylate] | 6% | 10% |  |  |
| CCCCCCCCCCCCCCCCC1CNc2cc(C(=O)O)ccc21 (racemic) [Compound CDD, (RS)-3-(n-hexadecyl)indoline-6-carboxylic acid] | -19% | -41% |  |  |
| CCCCCCCCCCCc1cc2ccc(C(=O)OCC(O)CO)cc2[nH]1 (racemic) [Compound CVV, (RS)-2,3-dihydroxyprop-1-yl 2-(n-undecyl)indole-6-carboxylate] |  |  |  | change in vivo at 0.1 % strength [1, 3]: -16%; change in vivo at 0.1 % strength [1, 4]: -56% |

From patent publication US4493843A, “Indole and indoline carboxylic acid compounds and method of use” (May & Baker Limited, priority 1980, dated 1985)
